Experimental data published in patent US20100056516A1 (priority 2006, published 2010).

Legend:
[1] = biological target: HIV integrase (Human immunodeficiency virus type 1 group M subtype B, UniProt P04585); test: integrase strand transfer assay (STA); type: biochemical; conditions: integrase strand transfer; read-out: IC50 in the STA assay
[2] = system: HXB2 virus; test: microbe, parasite or virus in culture; type: cell-based, HIV; conditions: Human immunodeficiency virus 1, HXB2, HeLaP4-2, read-out: antiviral IC50 (SCIA-B)
Outline: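 Single-cycle infectivity assay in HeLa P4-2 cells measuring inhibition of acute HIV infection, using HXB2 virus.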

## C[C@@H](Nc1cc(=O)n(O)c2ncccc12)c1ccccc1 [Example 125, 1-hydroxy-4-{[(1R)-1-phenylethyl]amino}-1,8-naphthyridin-2(1H)-one]
[1]
  IC50: < 50 µM
[2]
  IC50: < 100 µM

## O=c1cc(NCc2ccccc2)c2cccnc2n1O [Example 126, 4-(benzylamino)-1-hydroxy-1,8-naphthyridin-2(1H)-one]
[1]
  IC50: < 50 µM
[2]
  IC50: < 100 µM

## CCOC(=O)c1c(Nc2ccccc2)c2cccnc2n(O)c1=O [Example 127, Ethyl 4-anilino-1-hydroxy-2-oxo-1,2-dihydro-1,8-naphthyridine-3-carboxylate]
[1]
  IC50: < 50 µM
[2]
  IC50: < 100 µM

## CCOC(=O)c1c(NCc2ccccc2)c2cccnc2n(O)c1=O [Example 128, Ethyl 4-(benzylamino)-1-hydroxy-2-oxo-1,2-dihydro-1,8-naphthyridine-3-carboxylate]
[1]
  IC50: < 50 µM
[2]
  IC50: < 100 µM

## CCOC(=O)c1c(N[C@@H](CO)c2ccccc2)c2cccnc2n(O)c1=O [Example 129, Ethyl 1-hydroxy-4-{[(1R)-2-hydroxy-1-phenylethyl]amino}-2-oxo-1,2-dihydro-1,8-naphthyridine-3-carboxylate]
[1]
  IC50: < 50 µM
[2]
  IC50: < 100 µM

## CN(Cc1ccccc1)c1cc(=O)n(O)c2ncccc12 [Example 130, 4-[benzyl(methyl)amino]-1-hydroxy-1,8-naphthyridin-2(1H)-one]
[1]
  IC50: < 50 µM
[2]
  IC50: < 100 µM

## O=c1cc(N2CCN(c3ccccc3)CC2)c2cccnc2n1O [Example 131, 1-hydroxy-4-(4-phenylpiperazin-1-yl)-1,8-naphthyridin-2(1H)-one]
[1]
  IC50: < 50 µM
[2]
  IC50: < 100 µM

## O=c1cc(NCCc2ccccc2)c2cccnc2n1O [Example 132, 1-hydroxy-4-[(2-phenylethyl)amino]-1,8-naphthyridin-2(1H)-one]
[1]
  IC50: < 50 µM
[2]
  IC50: < 100 µM

## O=c1cc(N2CCC(Cc3ccccc3)CC2)c2cccnc2n1O [Example 133, 4-(4-benzylpiperidin-1-yl)-1-hydroxy-1,8-naphthyridin-2(1H)-one]
[1]
  IC50: < 50 µM
[2]
  IC50: < 100 µM

## O=c1cc(N2CCN(Cc3ccccc3)CC2)c2cccnc2n1O [Example 136, 4-(4-benzylpiperazin-1-yl)-1-hydroxy-1,8-naphthyridin-2(1H)-one]
[1]
  IC50: < 50 µM
[2]
  IC50: < 100 µM

## O=c1cc(N2CCC(N3CCOCC3)CC2)c2cccnc2n1O [Example 138, 1-hydroxy-4-[4-(4-morpholinyl)-1-piperidinyl]-1,8-naphthyridin-2(1H-one)]
[1]
  IC50: < 50 µM
[2]
  IC50: < 100 µM

## O=c1cc(Nc2ccccc2N2CCCCC2)c2cccnc2n1O [Example 139, 1-hydroxy-4-{[2-(1-piperidinyl)pheny]amino}-1,8-naphthyridin-2(1H-one)]
[1]
  IC50: < 50 µM
[2]
  IC50: < 100 µM

## O=c1cc(NCc2ccccc2Cl)c2cccnc2n1O [Example 141, 4-[(2-chlorobenzyl)amino]-1-hydroxy-1,8-naphthyridin-2(1H-one)]
[1]
  IC50: < 50 µM
[2]
  IC50: < 100 µM

## Cc1ccc(CNc2cc(=O)n(O)c3ncccc23)cc1 [Example 143, 1-hydroxy-4-[(4-methylbenzyl)amino]-1,8-naphthyridin-2(1H-one)]
[1]
  IC50: < 50 µM
[2]
  IC50: < 100 µM

## O=c1cc(N2CCCC(CN3CCOCC3)C2)c2cccnc2n1O (stereo not shown) [Example 144, 1-hydroxy-4-[3-(4-morpholinylmethyl)-1-piperidinyl]-1,8-naphthyridin-2(1H-one)]
[1]
  IC50: < 50 µM
[2]
  IC50: < 100 µM

## COc1cccc(CNc2cc(=O)n(O)c3ncccc23)c1 [Example 145, 1-hydroxy-4-[(3-methoxybenzyl)amino]-1,8-naphthyridin-2(1H-one)]
[1]
  IC50: < 50 µM
[2]
  IC50: < 100 µM

## O=c1cc(NCc2cccc(F)c2)c2cccnc2n1O [Example 146, 4-[(3-fluorobenzyl)amino]-1-hydroxy-1,8-naphthyridin-2(1H-one)]
[1]
  IC50: < 50 µM
[2]
  IC50: < 100 µM

## CN1CCN(c2cc(=O)n(O)c3ncccc23)CC1=O [Example 148, 1-hydroxy-4-(4-methyl-3-oxo-1-piperazinyl)-1,8-naphthyridin-2 (1H-one)]
[1]
  IC50: < 50 µM
[2]
  IC50: < 100 µM

## O=c1cc(NCc2ccc(F)cc2)c2cccnc2n1O [Example 152]
[1]
  IC50: < 50 µM
[2]
  IC50: < 100 µM

## O=c1cc(NCc2cccc(CN3CCCCC3)c2)c2cccnc2n1O [Example 153]
[1]
  IC50: < 50 µM
[2]
  IC50: < 100 µM

## O=c1cc(NCc2ccccc2F)c2cccnc2n1O [Example 155, 4-[(2-fluorobenzyl)amino]-1-hydroxy-1,8-naphthyridin-2(1H-one)]
[1]
  IC50: < 50 µM
[2]
  IC50: < 100 µM

## CC(C1CCN(c2cc(=O)n(O)c3ncccc23)CC1)N1CCOCC1 (stereo not shown) [Example 156, 1-hydroxy-4-{4-[1-(4-morpholinyl)ethyl]-1-piperidinyl}-1,8-naphthyridin-2(1H-one)]
[1]
  IC50: < 50 µM
[2]
  IC50: < 100 µM

## CC(Nc1cc(=O)n(O)c2ncccc12)c1ccccc1 (stereo not shown) [Example 157, 1-hydroxy-4-[(1-phenylethyl)amino]-1,8-naphthyridin-2(1H-one)]
[1]
  IC50: < 50 µM
[2]
  IC50: < 100 µM

## NCc1cccc(CNc2cc(=O)n(O)c3ncccc23)c1 [Example 159, 4-{[3-(aminomethyl)benzyl]amino}-1-hydroxy-1,8-naphthyridin-2(1H-one)]
[1]
  IC50: < 50 µM
[2]
  IC50: < 100 µM

## O=c1cc(NCc2ccncc2)c2cccnc2n1O [Example 160, 1-hydroxy-4-[(4-pyridinylmethyl)amino]-1,8-naphthyridin-2 (1H-one)]
[1]
  IC50: < 50 µM
[2]
  IC50: < 100 µM

## O=c1cc(NCCN2CCOCC2)c2cccnc2n1O [Example 161]
[1]
  IC50: < 50 µM
[2]
  IC50: < 100 µM

## O=c1cc(NCc2cccnc2)c2cccnc2n1O [Example 162, 1-hydroxy-4-[(3-pyrindinylmethyl)amino]-1,8-naphthyridin-2 (1H-one)]
[1]
  IC50: < 50 µM
[2]
  IC50: < 100 µM

## CCOC(=O)CN1CCN(c2cc(=O)n(O)c3ncccc23)CC1 [Example 164, ethyl[4-(1-hydroxy-2-oxo-1,2-dihydro-1,8-naphthyridin-4-yl)-1-piperazinyl]acetate]
[1]
  IC50: < 50 µM
[2]
  IC50: < 100 µM

## CC1CCN(Cc2cccc(CNc3cc(=O)n(O)c4ncccc34)c2)CC1 [Example 165, 1-hydroxy-4-({3-[(4-methyl-1-piperidinyl)methyl]benzyl}amino)-1,8-naphthyridin-2 (1H-one)]
[1]
  IC50: < 50 µM
[2]
  IC50: < 100 µM

## O=c1cc(NC(CN2CCCCC2)c2ccccc2)c2cccnc2n1O (stereo not shown) [Example 166, 1-hydroxy-4-{[1-phenyl-2-(1-piperidinyl)ethyl]amino}-1,8-naphthyridin-2 (1H-one)]
[1]
  IC50: < 50 µM
[2]
  IC50: < 100 µM

## O=c1cc(NCc2cnc(-c3ccccc3)[nH]2)c2cccnc2n1O [Example 167, 1-hydroxy-4-{[(2-phenyl-1-imidazole-5-yl)methyl]amino}-1,8-naphthyridin-2 (1H-one)]
[1]
  IC50: < 50 µM
[2]
  IC50: < 100 µM

## O=C1N[C@H]2CCCC[C@@H]2Nc2c1c(=O)n(O)c1ncccc21 [Example 169, (8aS, 12aS)-5-hydroxy-8,8a,9,10,11,12,12a,13-octahydro-5H-[1,8]naphthyridino[4,3-b][1,5]benzodiazepine-6,7-dione]
[1]
  IC50: < 50 µM
[2]
  IC50: < 100 µM

## O=C1N[C@H](c2ccccc2)[C@H](c2ccccc2)Nc2c1c(=O)n(O)c1ncccc21 [Example 170, (2S, 3R)-7-hydroxy-2,3-diphenyl-3,4-dihydro-1H-[1,4]diazepino[6,5-c]-1,8-naphthyridine-5,6(2H, 7H)-dione]
[1]
  IC50: < 50 µM
[2]
  IC50: < 100 µM

## O=c1cc(-c2ccccc2)c2cccnc2n1O [Example 171, 1-Hydroxy-4-phenyl-1,8-naphthyridin-2(H)-one]
[1]
  IC50: < 50 µM
[2]
  IC50: < 100 µM

## O=c1cc(-c2ccc3ccccc3c2)c2cccnc2n1O [Example 173, 1-hydroxy-4-(2-naphthyl)-1,8-naphthyridin-2(1H)-one]
[1]
  IC50: < 50 µM
[2]
  IC50: < 100 µM

## CC(c1ccc(-c2cc(=O)n(O)c3ncccc23)cc1)N1CCOCC1 (stereo not shown) [Example 174, 1-hydroxy-4-[4-(1-morpholin-4-ylethyl)phenyl]-1,8-naphthyridin-2(1H)-one]
[1]
  IC50: < 50 µM
[2]
  IC50: < 100 µM

## CS(=O)(=O)Nc1cccc(-c2cc(=O)n(O)c3ncccc23)c1 [Example 175, N-[3-(1-hydroxy-2-oxo-1,2-dihydro-1,8-naphthyridin-4-yl)phenyl]methanesulfo-namide]
[1]
  IC50: < 50 µM
[2]
  IC50: < 100 µM

## Cc1cc(C)n(-c2cccc(-c3cc(=O)n(O)c4ncccc34)c2)n1 [Example 176]
[1]
  IC50: < 50 µM
[2]
  IC50: < 100 µM

## CS(=O)(=O)Nc1cccc(-c2cccc(-c3cc(=O)n(O)c4ncccc34)c2)c1 [Example 177, N-[3′-(1-hydroxy-2-oxo-1,2-dihydro-1,8-naphthyridin-4-yl)biphenyl-3-yl]methanesulfonamide]
[1]
  IC50: < 50 µM
[2]
  IC50: < 100 µM

## CC(c1ccc(-c2cccc(-c3cc(=O)n(O)c4ncccc34)c2)cc1)N1CCOCC1 (stereo not shown) [Example 178, 1-hydroxy-4-[4′-(1-morpholin-4-ylethyl)biphenyl-3-yl]-1,8-naphthyridin-2(1H)-one]
[1]
  IC50: < 50 µM
[2]
  IC50: < 100 µM

## O=C(c1cccc(-c2cc(=O)n(O)c3ncccc23)c1)N1CCOCC1 [Example 179, 1-hydroxy-4-[3-(morpholin-4-ylcarbonyl)phenyl]-1,8-naphthyridin-2(1H)-one]
[1]
  IC50: < 50 µM
[2]
  IC50: < 100 µM

## CNC(=O)c1cccc(-c2cc(=O)n(O)c3ncccc23)c1 [Example 180, 3-(1-hydroxy-2-oxo-1,2-dihydro-1,8-naphthyridin-4-yl)-N-methylbenzamide]
[1]
  IC50: < 50 µM
[2]
  IC50: < 100 µM

## CN(C)C(=O)c1cccc(-c2cc(=O)n(O)c3ncccc23)c1 [Example 181, 3-(1-hydroxy-2-oxo-1,2-dihydro-1,8-naphthyridin-4-yl)-N,N-dimethylbenzamide]
[1]
  IC50: < 50 µM
[2]
  IC50: < 100 µM

## CC(C)(C)NC(=O)c1cccc(-c2cc(=O)n(O)c3ncccc23)c1 [Example 182]
[1]
  IC50: < 50 µM
[2]
  IC50: < 100 µM
